Laboratory results as given in patent publication US10308631B2, “Selective anti-cancer compounds” (NATIONAL UNIVERSITY OF SINGAPORE, priority 2015, dated 2019).

Tests used:
[1] = system: pH3 (Ser10) and LC3 in BJ transformed cells; test: Immunoblot classification of compounds by pH3 and LC3 (FIG. 4); format: cell-based, human; conditions: 5 μM, 24 h
Protocol: (§1) FIG. 4 compares the ability of Compound 1 (a131), and various derivatives thereof (referred to using their code numbers for brevity; the designated chemical compound for each code number is provided in the chemical examples section below), to inhibit autophagy and/or mitosis. BJ transformed cells were treated with 5 μM of various Compounds as shown, for 24 h. Cells were harvested and total lysates were analysed by detecting the mitotic marker phospho-histone H3 at serine 10 (pH3 (Ser10)) and the autophagosome marker LC3. Antibodies raised against β-actin were used as an internal loading control.
(§2) Derivatives of Compound 1 were tested to see if they had similar dual activity, or presented only one of the activities of Compound 1. The protocol for immunoblot analysis described in Biology Example 1 was applied to the additional indicated compounds.

[2] = system: autophagosome marker LC3 (LC3 II/LC3 I) in transformed BJ cells; test: Immunoblot analysis of autophagosome marker LC3 (lysosome function), derivatives of Compound 1; format: cell-based; conditions: Homo sapiens, band intensities LC3 II/LC3 I vs DMSO control, 24 h
Protocol: as §1
(§3) The ability of Compound 1 to inhibit lysosome function was examined using immunoblotting. HeLa cervical cancer cells were cultured in Dulbecco's modified Eagle's medium (DMEM) supplemented with 10% Fetal Bovine Serum (FBS, Thermo Scientific). The HeLa cells were treated with different concentrations of Compound 1 (0.625, 1.25, 2.5, 5 and 10 μM, dimethyl sulfoxide (DMSO, Kanto Kagaku)), chloroquine (CQ) (1.25, 2.5, 10, 50 and 100 μM, DMSO) or DMSO for 6 h. Then, the treated cells were harvested and lysed in 1% triton lysis buffer [25 mM Tris HCl (pH8.0), 150 mM NaCl, 1% triton-X100, 1 mM dithiothreitol (DTT), protease inhibitor mix (Complete Mini, Roche) and phosphatase inhibitor (PhosphoStop, Roche)]. The proteins in total lysates were boiled with sample buffer (60 mM Tris-HCl (pH 6.8), 25% glycerol, 2% SDS, 14.4 mM 2-mercaptoethanol, 0.1% bromophenol blue) and resolved by 14% tris-glycine sodium dodecyl sulfate polyacrylamide gel electrophoresis (SDS-PAGE) and subjected to immunoblot analysis.
(§4) Defects in lysosome function and inhibition of autophagy can be measured by accumulation of LC3-phosphatidylethanolamine conjugated non-soluble form (LC3-II), which are converted from soluble LC3-I. Thus, antibodies raised against LC3 (Cell Signaling, Cat#4108) were used to determine lysosomal function and integrity. Antibodies raised against phosphorylated histone H3 at serine 10 residue (pH3) (Cell signaling, Cat#3377) were used as the marker for mitotic dysfunction and arrest. Antibodies raised against β-actin (Millipore, Cat#MAB1501) were used as an internal loading control. The inhibitory ability of Compound 1 was also quantitatively compared to CQ.
as §2
(§5) Activities of compounds were determined by two independent experiments. First, Compounds were classified according to the intensity of increase in each of the mitotic marker phospho-histone H3 at serine 10 (pH3 (Ser 10)) and the autophagosome marker LC3, respectively, at 1.25 μM, when compared with 1.25 μM Compound 1 (a131).
(§6) Compounds classified “++” on either “mitosis” or “inhibits lysosome” show similar increase in each of the mitotic marker phospho-histone H3 at serine 10 (pH3 (Ser10)) and the autophagosome marker LC3, respectively, at 2.5 μM, when compared with 1.25 μM Compound 1 (a131); and compounds classified “+” on either “mitosis” or “inhibits lysosome” show similar increase in each of the mitotic marker phospho-histone H3 at serine 10 (pH3 (Ser10)) and the autophagosome marker LC3, respectively, at a concentration range of 5-10 μM, when compared with 1.25 μM Compound 1 (a131).
Compounds classified “+/−” on either “mitosis” or “inhibits lysosome” show less increase in each of the mitotic marker phospho-histone H3 at serine 10 (pH3 (Ser10)) and the autophagosome marker LC3, respectively, at a concentration range of 5-10 μM, when compared with 1.25 μM Compound 1 (a131). […]

[3] = system: mitotic marker phospho-histone H3 at serine 10 (pH3 (Ser10)) in transformed BJ cells; test: Immunoblot analysis of mitotic marker pH3 (Ser10), derivatives of Compound 1; format: cell-based; conditions: Homo sapiens, band intensities pH3(Ser10)/β-actin vs DMSO control, 24 h
Protocol: as §1, §3, §4, §2, §5, §6
Compounds classified “+/−” on either “mitosis” or “inhibits lysosome” show less increase in each of the mitotic marker phospho-histone H3 at serine 10 (pH3 (Ser10)) and the autophagosome marker LC3, respectively, at a concentration range of 5-10 μM, when compared with 1.25 μM Compound 1 (a131).
Next, the ability of Compound 1 and its derivatives to induce mitotic arrest in transformed BJ cells was quantified as the fold induction of band intensities [pH3(Ser10)/β-actin] in comparison with DMSO control. […]

| SMILES | Inhibition of lysosome function and/or mitosis (FIG. 4) [1] | fold induction at 5 µM [2] | fold induction at 5 µM [3] |
| --- | --- | --- | --- |
| N#C/C(=C\c1cccc2cnccc12)c1c[nH]c2ccc(Cl)cc12 [Compound 7, (Z)-2-(5-chloro-1H-indol-3-yl)-3-(isoquinolin-5-yl)acrylonitrile] | inhibit lysosome function only | 2 | 1.4 |
| COCCOc1ccc2[nH]cc(/C(C#N)=C/c3cccc4cnccc34)c2c1 [Compound 12, (Z)-2-(5-(2-methoxyethoxy)-1H-indol-3-yl)-3-(isoquinolin-5-yl)acrylonitrile] | inhibit lysosome function only | 3.2 | 1.6 |
| CC(=O)Nc1ccc2[nH]cc(/C(C#N)=C/c3cccc4cnccc34)c2c1 [Compound 14, N-(3-((Z)-1-cyano-2-(isoquinolin-5-yl)vinyl)-1H-indol-5-yl)acetamide] |  | 0.5 | 1.2 |
| CC(C)(C)OC(=O)N1CCC(C(=O)n2cc(/C(C#N)=C/c3cccc4cnccc34)c3ccccc32)CC1 [Compound 19, (Z)-tert-butyl 4-(3-(1-cyano-2-(isoquinolin-5-yl)vinyl)-1H-indole-1-carbonyl)piperidine-1-carboxylate] | exhibit the dual properties of inhibiting both lysosome function and mitosis | 5.2 | 16.2 |
| N#C/C(=C\c1cccc2cnccc12)c1cn(C(=O)CCNC(=O)CCCC[C@@H]2SC[C@@H]3NC(=O)N[C@@H]32)c2ccccc12 [Compound 24, N-(3-(3-((Z)-1-cyano-2-(isoquinolin-5-yl)vinyl)-1H-indol-1-yl)-3-oxopropyl)-5-((3aS,4S,6aR)-2-oxohexahydro-1H-thieno[3,4-d]imidazol-4-yl)pentanamide] | exhibit the dual properties of inhibiting both lysosome function and mitosis | 3.3 | 3.2 |
| O=C(Nc1cccc2cnccc12)c1c[nH]c2ccccc12 [Compound 29, N-(isoquinolin-5-yl)-1H-indole-3-carboxamide] |  | 0.4 | 1.4 |
| N#C/C(=C\c1cccc2cnccc12)c1c[nH]c2ccc(OCCC3OCCO3)cc12 [Compound 11, (Z)-2-(5-(2-(1,3-dioxolan-2-yl)ethoxy)-1H-indol-3-yl)-3-(isoquinolin-5-yl)acrylonitrile] |  | 0.7 | 1 |
| COc1cccc2c(/C(C#N)=C/c3cccc4cnccc34)c[nH]c12 [Compound 6, (Z)-3-(isoquinolin-5-yl)-2-(7-methoxy-1H-indol-3-yl)acrylonitrile] | exhibit the dual properties of inhibiting both lysosome function and mitosis | 2.7 | 3.9 |
| N#C/C(=C\c1cccc2cnccc12)c1c[nH]c2ccc(CN3CCCC3)cc12 [Compound 32, (Z)-3-(isoquinolin-5-yl)-2-(5-((pyrrolidin-1-yl)methyl)-1H-indol-3-yl)acrylonitrile] | inhibit lysosome function only | 3.3 | 1 |
| N#C/C(=C\c1cccc2cnccc12)c1c[nH]c2c(Br)cccc12 [Compound 5, (Z)-2-(7-bromo-1H-indol-3-yl)-3-(isoquinolin-5-yl)acrylonitrile] |  | 2.2 | 1.4 |
| C(=C\c1c[nH]c2ncccc12)/c1cccc2cnccc12 [Compound 27, 5-((E)-2-(1H-pyrrolo[2,3-b]pyridin-3-yl)vinyl)isoquinoline] | inhibit lysosome function only | 2 | 1.2 |
| N#C/C(=C\c1cccc2cnccc12)c1c[nH]c2ccc(OCCCN3CCCC3)cc12 [Compound 13, (Z)-2-(5-(3-(pyrrolidin-1-yl)propoxy)-1H-indol-3-yl)-3-(isoquinolin-5-yl)acrylonitrile] | inhibit lysosome function only | 6 | 0.9 |
| COc1ccc2[nH]cc(/C(C#N)=C/c3cccc4cnccc34)c2c1 [Compound 2, (Z)-3-(isoquinolin-5-yl)-2-(5-methoxy-1H-indol-3-yl)acrylonitrile] | exhibit the dual properties of inhibiting both lysosome function and mitosis | 3.2 | 3 |
| COc1ccc2c(/C(C#N)=C/c3cccc4cnccc34)c[nH]c2c1 [Compound 9, (Z)-3-(isoquinolin-5-yl)-2-(6-methoxy-1H-indol-3-yl)acrylonitrile] | exhibit the dual properties of inhibiting both lysosome function and mitosis | 2.6 | 4.3 |
| COCCOCC(=O)n1cc(/C(C#N)=C/c2cccc3cnccc23)c2ccccc21 [Compound 30, (Z)-2-(1-(2-(2-methoxyethoxy)acetyl)-1H-indol-3-yl)-3-(isoquinolin-5-yl)acrylonitrile] | exhibit the dual properties of inhibiting both lysosome function and mitosis | 4.1 | 12.8 |
| N#C/C(=C\c1cccc2cnccc12)c1cn(C(=O)CCCC[C@@H]2SC[C@@H]3NC(=O)N[C@@H]32)c2ccccc12 [Compound 18, (Z)-3-(isoquinolin-5-yl)-2-(1-(5-((3aS,4S,6aR)-2-oxohexahydro-1H-thieno[3,4-d]imidazol-4-yl)pentanoyl)-1H-indol-3-yl)acrylonitrile] | inhibit mitosis only | 1.7 | 2.2 |
| N#C/C(=C\c1cccc2cnccc12)c1c[nH]c2ccc(NC(=O)CCCC[C@@H]3SC[C@@H]4NC(=O)N[C@@H]43)cc12 [Compound 15, N-(3-((Z)-1-cyano-2-(isoquinolin-5-yl)vinyl)-1H-indol-5-yl)-5-((3aS,4S,6aR)-2-oxohexahydro-1H-thieno[3,4-d]imidazol-4-yl)pentanamide] |  | 1.1 | 1.7 |
| CC(=O)NCCC(=O)n1cc(/C(C#N)=C/c2cccc3cnccc23)c2ccccc21 [Compound 17, (Z)—N-(3-(3-(1-cyano-2-(isoquinolin-5-yl)vinyl)-1H-indol-1-yl)-3-oxopropyl)acetamide] |  | 2.3 | 2.8 |
| C(=C\c1c[nH]c2ccccc12)/c1cccc2cnccc12 [Compound 25, 5-((E)-2-(1H-indol-3-yl)vinyl)isoquinoline] |  | 5.4 | 1.3 |
| N#C/C(=C\c1cccc2cnccc12)c1c[nH]c2cc(Br)ccc12 [Compound 10, (Z)-2-(6-bromo-1H-indol-3-yl)-3-(isoquinolin-5-yl)acrylonitrile] |  | 0.7 | 1.6 |
| N#C/C(=C\c1cncc2cnccc12)c1c[nH]c2ccccc12 [Compound 4, (Z)-2-(1H-indol-3-yl)-3-(2,7-naphthyridin-4-yl)acrylonitrile] |  | 1 | 1.4 |
